Here are results for one compound from ChEMBL document CHEMBL4190372, “Discovery of a Novel Oral Glucocorticoid Receptor Modulator (AZD9567) with Improved Side Effect Profile” (J Med Chem, 2018).

Data set [1] has as its target T1, Glucocorticoid receptor (Homo sapiens, UniProt P04150).
T1 sequence (P04150 whole entry): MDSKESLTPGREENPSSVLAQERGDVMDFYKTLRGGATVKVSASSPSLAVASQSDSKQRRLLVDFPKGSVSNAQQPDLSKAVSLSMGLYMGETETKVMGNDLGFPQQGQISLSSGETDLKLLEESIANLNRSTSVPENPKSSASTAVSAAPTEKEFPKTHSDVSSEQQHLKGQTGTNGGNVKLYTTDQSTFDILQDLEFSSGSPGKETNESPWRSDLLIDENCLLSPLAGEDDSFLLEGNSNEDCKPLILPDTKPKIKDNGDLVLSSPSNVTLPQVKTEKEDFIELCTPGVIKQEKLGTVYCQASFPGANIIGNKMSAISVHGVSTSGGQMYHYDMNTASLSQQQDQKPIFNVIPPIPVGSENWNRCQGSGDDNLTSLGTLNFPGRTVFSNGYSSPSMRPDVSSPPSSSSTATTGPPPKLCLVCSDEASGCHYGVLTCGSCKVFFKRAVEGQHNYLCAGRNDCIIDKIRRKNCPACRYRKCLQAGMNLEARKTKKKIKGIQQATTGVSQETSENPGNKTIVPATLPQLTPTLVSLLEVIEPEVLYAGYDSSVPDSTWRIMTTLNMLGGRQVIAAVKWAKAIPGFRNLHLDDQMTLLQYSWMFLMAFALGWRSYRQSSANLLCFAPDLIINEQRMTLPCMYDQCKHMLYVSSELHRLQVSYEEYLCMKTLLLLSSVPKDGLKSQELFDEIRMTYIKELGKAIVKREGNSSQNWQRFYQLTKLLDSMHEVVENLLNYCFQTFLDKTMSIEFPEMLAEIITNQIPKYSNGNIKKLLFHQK
As to the kind of experiment: Displacement of fluormone RED from human full length glucocorticoid receptor after 4 hrs by fluorescence polarization assay. (In general: Polarisation of emitted light reports the rotation of a fluorescent probe.)

Data set [2] is described as follows: Aqueous solubility of the compound. The note with it: aqueous; read-out: solubility. The data set is classed as physicochemical.
In data set [3] the target is T2, Mineralocorticoid receptor (Homo sapiens, UniProt P08235).
T2 sequence (P08235 whole entry): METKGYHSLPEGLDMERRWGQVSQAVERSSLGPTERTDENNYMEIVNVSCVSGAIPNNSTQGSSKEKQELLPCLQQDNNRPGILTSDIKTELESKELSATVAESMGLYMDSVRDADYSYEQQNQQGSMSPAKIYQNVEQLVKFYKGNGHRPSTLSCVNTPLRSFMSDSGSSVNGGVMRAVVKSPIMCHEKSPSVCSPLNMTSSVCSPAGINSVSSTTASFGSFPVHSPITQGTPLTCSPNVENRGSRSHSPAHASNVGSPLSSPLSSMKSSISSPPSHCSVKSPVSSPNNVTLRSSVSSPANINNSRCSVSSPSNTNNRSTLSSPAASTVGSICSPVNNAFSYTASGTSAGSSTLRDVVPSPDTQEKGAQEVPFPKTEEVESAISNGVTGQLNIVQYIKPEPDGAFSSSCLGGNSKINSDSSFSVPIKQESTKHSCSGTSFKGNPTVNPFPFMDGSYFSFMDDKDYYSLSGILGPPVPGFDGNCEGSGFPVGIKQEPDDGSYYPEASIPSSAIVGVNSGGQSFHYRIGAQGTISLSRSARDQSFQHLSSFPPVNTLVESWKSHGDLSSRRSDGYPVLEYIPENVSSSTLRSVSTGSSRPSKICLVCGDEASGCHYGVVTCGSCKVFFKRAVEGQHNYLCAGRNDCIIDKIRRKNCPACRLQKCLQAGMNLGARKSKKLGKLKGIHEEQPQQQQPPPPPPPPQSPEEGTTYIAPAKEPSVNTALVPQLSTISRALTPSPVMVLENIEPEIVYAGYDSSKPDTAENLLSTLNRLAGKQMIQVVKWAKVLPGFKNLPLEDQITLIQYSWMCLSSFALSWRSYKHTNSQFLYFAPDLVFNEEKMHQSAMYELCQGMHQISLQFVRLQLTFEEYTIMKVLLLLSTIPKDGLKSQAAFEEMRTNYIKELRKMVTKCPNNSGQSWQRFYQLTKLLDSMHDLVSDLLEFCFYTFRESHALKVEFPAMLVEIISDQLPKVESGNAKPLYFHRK
The data set is described as follows: Displacement of [3H]-aldosterone from human mineralocorticoid receptor LBD (729 to 984 residues) after 1 hr by scintillation proximity assay. (In general: In a radioligand displacement assay an active substance lowers the binding of a labelled ligand.)

Another data set addresses Estrogen receptor beta (Homo sapiens, UniProt Q92731). The data set is described as follows: Binding affinity to human ERbeta expressed in Sf9 cells by fluoligand binding-based fluorescence polarization method.
Data set [4] can be described thus: Tmax in Han-Wistar rat at 2.1 mg/kg, po. In kind it is ADME, organism-based. The note with it: in vivo.
Data set [5] can be described thus: Oral bioavailability in Han-Wistar rat at […]. In kind it is ADME, organism-based. The note with it: in vivo.
Data set [6] can be described thus: Clearance in Han-Wistar rat at 0.8 mg/kg, iv. In kind it is ADME, organism-based. Conditions: in vivo; call rule not given here.
Data set [7] is described as follows: Oral bioavailability in Beagle dog at 0.5 mg/kg. Conditions: in vivo. In kind it is ADME, organism-based, Canis lupus familiaris.
Data set [8] in a line: Clearance in Beagle dog at 0.5 mg/kg, po. The data set is classed as ADME, organism-based, Canis lupus familiaris. The note with it: in vivo.
Data set [9] deals with T3, Glucocorticoid receptor (Rattus norvegicus, UniProt P06536).
T3 sequence (P06536 whole entry): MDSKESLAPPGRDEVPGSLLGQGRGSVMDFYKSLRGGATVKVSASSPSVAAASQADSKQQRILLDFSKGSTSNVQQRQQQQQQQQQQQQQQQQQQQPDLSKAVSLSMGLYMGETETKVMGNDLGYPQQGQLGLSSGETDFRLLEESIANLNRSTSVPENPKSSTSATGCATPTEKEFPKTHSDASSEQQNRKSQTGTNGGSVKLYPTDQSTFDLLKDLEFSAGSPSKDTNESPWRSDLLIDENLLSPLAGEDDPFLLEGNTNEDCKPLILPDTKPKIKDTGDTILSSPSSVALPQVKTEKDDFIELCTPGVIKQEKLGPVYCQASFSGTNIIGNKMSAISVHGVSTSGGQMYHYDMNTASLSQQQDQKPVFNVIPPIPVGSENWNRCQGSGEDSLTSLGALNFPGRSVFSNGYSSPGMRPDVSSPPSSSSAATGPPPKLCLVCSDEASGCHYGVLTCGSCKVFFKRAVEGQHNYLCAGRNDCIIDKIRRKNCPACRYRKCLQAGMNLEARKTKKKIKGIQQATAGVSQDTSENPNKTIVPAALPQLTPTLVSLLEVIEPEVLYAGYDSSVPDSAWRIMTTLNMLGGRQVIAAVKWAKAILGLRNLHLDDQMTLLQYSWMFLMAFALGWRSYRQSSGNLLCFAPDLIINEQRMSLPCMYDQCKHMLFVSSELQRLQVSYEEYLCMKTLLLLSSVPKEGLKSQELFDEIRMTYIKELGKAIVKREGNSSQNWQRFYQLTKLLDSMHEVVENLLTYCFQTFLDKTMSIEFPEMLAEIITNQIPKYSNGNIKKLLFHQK
As to the kind of experiment: Modulation of glucocorticoid receptor in rat whole blood.

The target of data set [10] is T3, Glucocorticoid receptor. The data set is described as follows: Modulation of glucocorticoid receptor in rat plasma.
Data set [11] in a line: Ratio of drug level in rat blood to plasma. The data set is classed as ADME, cell-free. Conditions: blood and plasma.
In data set [12] the target is T1, Glucocorticoid receptor. As to the kind of experiment: Transactivation of GR in cryopreserved human primary hepatocytes assessed as upregulation of TAT mRNA expression level up to 1 uM after 18 hrs by RT-qPCR analysis.
Data set [13] has as its target T1, Glucocorticoid receptor.
Description: Transrepression of GR in human whole blood assessed as inhibition of LPS-induced TNF-alpha release preincubated for 45 mins followed by LPS addition after 18 hrs by AlphaLISA method

The term IC50 denotes the concentration needed to halve the response being measured. High values mean a need for much substance, low ones inhibition by little substance. The term solubility denotes the dissolved amount per volume that the medium holds. One may read the Tmax as the time at which the peak concentration occurs. One may read the bioavailability as the share of a dose that reaches the circulation, judged against a reference dose that is usually intravenous. A lower bioavailability goes with little systemic uptake. For orientation: clearance means the volume of plasma or blood freed of the substance per unit of time. A higher clearance goes with efficient removal. Broadly, the CL/F is clearance divided by bioavailability, as obtained after extravascular dosing.

In brackets after ≈: the same amount, converted by molar mass. Where only a bound is given, the exact number is not on record here.

Chain of Estrogen receptor beta (Q92731 whole entry): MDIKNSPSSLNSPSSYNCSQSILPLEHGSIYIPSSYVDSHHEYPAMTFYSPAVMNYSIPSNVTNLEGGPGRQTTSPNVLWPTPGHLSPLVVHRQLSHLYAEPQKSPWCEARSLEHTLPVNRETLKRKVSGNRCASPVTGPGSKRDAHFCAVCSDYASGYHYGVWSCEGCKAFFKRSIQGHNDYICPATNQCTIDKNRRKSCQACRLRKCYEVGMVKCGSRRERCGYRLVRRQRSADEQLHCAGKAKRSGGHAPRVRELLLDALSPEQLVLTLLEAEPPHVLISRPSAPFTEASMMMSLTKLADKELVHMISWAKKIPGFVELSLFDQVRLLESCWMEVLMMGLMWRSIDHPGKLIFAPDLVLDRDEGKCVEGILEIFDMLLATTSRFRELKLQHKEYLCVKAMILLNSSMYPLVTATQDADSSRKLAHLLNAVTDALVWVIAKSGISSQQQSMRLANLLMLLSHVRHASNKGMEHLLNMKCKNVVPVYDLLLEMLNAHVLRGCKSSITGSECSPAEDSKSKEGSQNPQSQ

Turning to `CC(C)[C@H](NC(=O)C(C)(F)F)[C@H](Oc1ccc2c(cnn2-c2ccc(=O)n(C)c2)c1)c1ccccc1` [MIZACORAT], the IC50 is 3.8 nM at Glucocorticoid receptor [1]; greater than 38000 nM in data set [3]; greater than 100000 nM at Estrogen receptor beta; 19 nM against Glucocorticoid receptor [9]; 30 nM on Glucocorticoid receptor [10]; 680 nM on Glucocorticoid receptor [13]. Moreover, the solubility in data set [2] was 55 µM (≈ 27.2 µg/mL). Also, the Tmax in data set [4] turned out to be 2 h. In addition, the values for the bioavailability in data set [5] and in data set [7] were 52% and 48%, respectively. For the same compound, the clearance in data set [6] was determined as 4.5 mL/min/kg. In [8], this compound gave a CL/F of 3.2 mL/min/kg. Further, in data set [11], the blood plasma ratio is 0.64. Also, the Activity result on Glucocorticoid receptor [12] is given as “Not Active”.
